Molecular target: α-amylase
Experiment: α-amylase inhibition, starch/DNSA colorimetric assay at […] nm
Assay type: biochemical

Structure (SMILES)	α-Amylase inhibition method IC50 value
Cc1ccc(-c2nn(C(=O)c3ccncc3)cc2C(=O)O)cc1 [MPP, 3-(4-methylphenyl)-1-(pyridine-4-carbonyl)-1H-pyrazole-4-carboxylic acid]	200.94 µg/mL
O=C(O)c1cn(C(=O)c2ccncc2)nc1-c1ccccc1 [PPP, 3-phenyl-1-(pyridine-4-carbonyl)-1H-pyrazole-4-carboxylic acid]	122.17 µg/mL

Reference: publication PMC11411632 (RSC Advances, 2024)
